Results taken from article PMC11943435, “Functional Investigation of the Receptor to the Major Pheromone Component in the C-Strain and the R-Strain of the Fall Armyworm Spodoptera frugiperda” (Insects, 2025).

Target: T1, C-SfruOR13 (SfruOR13 from the C-strain) (Spodoptera frugiperda, UniProt A0A9R0CXR4)
T1 construct: gene LOC118264496; full-length ORF (435 residues), synthesized, pUAST.attB; expressed in Drosophila at1 trichoid OSNs (Or67d-GAL4) replacing OR67d; Orco is that of the fly host; with Odorant receptor coreceptor (endogenous, Drosophila melanogaster)
T1 sequence (A0A9R0CXR4 1-435): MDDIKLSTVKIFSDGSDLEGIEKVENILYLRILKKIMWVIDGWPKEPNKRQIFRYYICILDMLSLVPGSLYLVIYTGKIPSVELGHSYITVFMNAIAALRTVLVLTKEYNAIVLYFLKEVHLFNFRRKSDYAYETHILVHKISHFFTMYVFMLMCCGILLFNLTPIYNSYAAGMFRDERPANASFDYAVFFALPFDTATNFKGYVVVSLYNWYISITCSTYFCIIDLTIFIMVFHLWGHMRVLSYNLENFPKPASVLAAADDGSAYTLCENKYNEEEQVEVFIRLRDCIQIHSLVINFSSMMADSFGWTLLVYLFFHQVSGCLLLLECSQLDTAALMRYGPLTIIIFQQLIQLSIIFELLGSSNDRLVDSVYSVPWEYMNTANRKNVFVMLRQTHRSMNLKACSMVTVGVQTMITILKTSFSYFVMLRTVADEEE
T1 sequence (Q9VNB5 1-486 partner): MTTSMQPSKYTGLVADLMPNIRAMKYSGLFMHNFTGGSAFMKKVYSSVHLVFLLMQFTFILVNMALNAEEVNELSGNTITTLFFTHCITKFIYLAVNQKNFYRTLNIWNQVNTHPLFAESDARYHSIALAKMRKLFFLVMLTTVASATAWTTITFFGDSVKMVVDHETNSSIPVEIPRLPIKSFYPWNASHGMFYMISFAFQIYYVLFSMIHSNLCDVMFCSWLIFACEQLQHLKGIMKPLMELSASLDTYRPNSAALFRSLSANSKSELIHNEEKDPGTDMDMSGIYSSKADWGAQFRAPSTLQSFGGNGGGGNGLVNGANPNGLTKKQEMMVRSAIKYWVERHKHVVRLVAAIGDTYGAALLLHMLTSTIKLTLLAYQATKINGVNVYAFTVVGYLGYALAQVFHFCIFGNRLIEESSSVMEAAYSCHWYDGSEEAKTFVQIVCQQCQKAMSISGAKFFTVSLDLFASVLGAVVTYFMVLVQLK
Test: single-sensillum recording, Drosophila at1 OSNs, dose-response
Format: cell-based
Conditions: agonist; vapour stimulus, 10 ng to 10 µg loaded on filter paper in hexane

CCCC/C=C\CCCCCCCCOC(C)=O [(Z)-9-14:OAc, (Z)-9-tetradecenyl acetate]
single-sensillum recording, Drosophila at1 OSNs, dose-response: C-SfruOR13 was significantly activated by the same three compounds that elicited a response in R-SfruOR13
